# Reference: patent US6696493B2, “Treating chronic uremic patients undergoing periodic dialysis” (Sigma-Tau Industrie Farmaceutiche Riunite S.p.A., priority 2000, dated 2004)
# Entries after “also recorded” stand apart in the source; their conditions may differ.
# What was measured:
# [1] = test system: maintenance hemodialysis patients; details: i.v. 20 mg/kg after each dialysis session; cited from earlier work
# perfused heart = assay: low-pressure or low-flow ischaemia model, perfused heart (Langendorff)
# Source text: In this example, the low-pressure or low-flow ischaemia model was used, which is a model recognised as valid for cardiac ischaemia (Bolukoglu, H. et al. Am. J. Physiol. 1996: 270; H817-26).
# The treatment schedule is illustrated in FIG. 1., in which the letters A-F denote the heart effluent sampling times for the measurement of metabolites. The hearts are removed from the animals and mounted on a Langerdorff appliance. The perfusion medium replacing the blood was a Krebs-Heinsleit standard bicarbonate buffer containing glucose 12 mM as energy source for cardiac metabolism.
# After 30 minute perfusion at a pressure of 100 cm of water, ischaemia was induced by reducing the perfusion pressure of the heart to 25 cm of water, thus reducing coronary flow from approximately 2 ml/min to approximately 0.3 ml/min. Reduction of the perfusion pressure gives rise to ischaemia, since the heart will pump the fluid in the low-perfusion area rather than via the coronary bloodstream, supplying the flow to the heart.
# This control model was compared with hearts perfused with L-carnitine 10 mM or L-carnitine fumarate 10 mM.
# Cardiac function was tested in three different ways.
# In the first, the NRM ^31P signal was monitored in real time.
# This signal provides the best indication of the energy status of the heart.
# In the second, the haemodynamics of the heart was measured by means of a pressure transducer mounted to measure the perfusion pressure. The haemodynamic measurements include heart rate, relative dP/dt (measurement of the contraction force of the heart) and the cardiac contraction amplitude. Coronary flow was also measured as an indicator of the heart's ability to provide oxygen and energy for its own metabolism.
# In the third type of test, the metabolites and the enzyme LDH released by the heart were analysed in the effluent. The release of LDH indicates damage to cardiac tissue. The release of metabolites by the heart was tested by means of mass spectrometry coupled with gas chromatography.
# The procedures of example 1 were substantially repeated, with the addition of a treatment with carnitine alone as a further control.
# [2] = cited from earlier work
# patients = details: oral supplementation, cited from earlier work
# hemodialysis patients = details: i.v. 20 mg/kg for six months, then 10 mg/kg, after each dialysis session; cited from earlier work
# [3] = 10 mM, post-ischemic, vs control hearts
compound,measurement,setting,value
"C[N+](C)(C)C[C@H](O)CC(=O)[O-] [carnitine, L-carnitine]",dialytic symptoms,[1],decrease
same,effect on serum lipid profile,[1],does not seem to have a great lipid-lowering potential
same,"exercise capability, sense of well being",[1],improvement
same,"ATP peaks (alpha, beta, gamma phosphate, 31P NMR)","perfused heart; Example 2, after 40 minutes of ischaemia, FIG. 2",lacking
same,bioavailability through the oral route,[2],subject to saturation mechanism
same,"quality of life, early stage of treatment",patients; early stage of treatment,effective in improving the quality of life
same,"quality of life, long term treatment",patients; long term treatment (six months),not sustained
same,abnormal serum fatty acid profile,hemodialysis patients,partial correction
"C[N+](C)(C)C[C@H](O)CC(=O)[O-].O=C(O)/C=C/C(=O)O [carnitine fumarate, L-carnitine fumarate]",release of LDH in heart effluent,"perfused heart; 10 mM in perfusion medium, low-flow ischaemia, vs control hearts, fumarate",reduced release of LDH; also recorded: affords protection against ischemic damage
same,"reserves of high-energy phosphate (creatine phosphate, 31P NMR)","perfused heart; 10 mM, after 45 minutes of ischaemia, vs control hearts",greater in treated hearts
same,malate released by the heart (effluent),"perfused heart; 10 mM, low-flow ischaemia, GC-MS of effluent",more malate
same,lactate released by the heart (effluent),"perfused heart; 10 mM, low-flow ischaemia, GC-MS of effluent, fumarate",less lactate; also recorded: lactate reduction
same,coronary flow,perfused heart; [3],greater
same,post-ischemic cardiac contraction amplitude,perfused heart; [3],greater
same,succinate released by the heart (effluent),"perfused heart; Example 2, FIG. 3B, compared to lactate",low amount of succinate as compared to lactate
